Several values for one entry are separate records, joined by “and”; a condition that tells them apart may be missing. Equal values may be shown once. Inconclusive results and toxic doses are left out. The calls were made as follows: active = survival T/C of 150% or more; inactive = T/C below 125% in these data.
System: P388 leukemia ip, CD2F1 mice, survival T/C
Assay: NCI In Vivo Anticancer Drug Screen. Data for tumor model P388 Leukemia (intraperitoneal) in CD2F1 (CDF1) mice
Conditions: endpoint: median survival time, higher = longer survival
How it was run: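 Mice carrying the transplanted tumor received test compound or vehicle. Survival was recorded in each group, and the value is the treated-group measurement divided by that of the vehicle-treated control group.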

[1] = dose: 50.0 mg/kg/injection, schedule: Q01DX009 (ip), vehicle: saline
[2] = dose: 100.0 mg/kg/injection, schedule: Q01DX009 (ip), vehicle: saline
[3] = dose: 100.0 mg/kg/injection, schedule: Q04DX003 (ip), vehicle: saline with Tween-80
[4] = dose: 200.0 mg/kg/injection, schedule: Q04DX003 (ip), vehicle: saline with Tween-80
[5] = dose: 12.5 mg/kg/injection, schedule: Q01DX009 (ip), vehicle: water
[6] = dose: 50.0 mg/kg/injection, schedule: Q01DX009 (ip), vehicle: water
[7] = dose: 100.0 mg/kg/injection, schedule: Q01DX009 (ip), vehicle: water
[8] = dose: 100.0 mg/kg/injection, schedule: Q04DX002 (ip), vehicle: saline with Tween-80
[9] = dose: 200.0 mg/kg/injection, schedule: Q04DX002 (ip), vehicle: saline with Tween-80
[10] = dose: 400.0 mg/kg/injection, schedule: Q04DX002 (ip), vehicle: saline with Tween-80
[11] = dose: 50.0 mg/kg/injection, schedule: Q01DX009 (ip), vehicle: saline with Tween-80
[12] = dose: 100.0 mg/kg/injection, schedule: Q01DX009 (ip), vehicle: saline with Tween-80
[13] = dose: 200.0 mg/kg/injection, schedule: Q01DX009 (ip), vehicle: saline with Tween-80
[14] = dose: 50.0 mg/kg/injection, schedule: Q04DX003 (ip), vehicle: saline with Tween-80
[15] = dose: 50.0 mg/kg/injection, schedule: Q01DX009 (ip), vehicle: suspension in saline
[16] = dose: 100.0 mg/kg/injection, schedule: Q01DX009 (ip), vehicle: suspension in saline
[17] = dose: 200.0 mg/kg/injection, schedule: Q01DX009 (ip), vehicle: suspension in saline
[18] = dose: 200.0 mg/kg/injection, schedule: Q01DX009 (ip), vehicle: saline
[19] = dose: 60.0 mg/kg/injection, schedule: Q01DX005 (ip), vehicle: saline with Tween-80
[20] = dose: 120.0 mg/kg/injection, schedule: Q01DX005 (ip), vehicle: saline with Tween-80

Measured: T/C

N=C(N)COCc1ccccc1
inactive: dose: 25.0 mg/kg/injection, schedule: Q01DX009 (ip), vehicle: saline 116 % of control | [1] 120 % of control | [2] 111 % of control

N#CC(C#N)=C(C#N)C#N
inactive: [3] 103 % of control | [4] 103 % of control

COc1ccc([N+]2=Cc3cc(OC)c(OC)cc3CC2)cc1OC
inactive: dose: 6.25 mg/kg/injection, schedule: Q01DX009 (ip), vehicle: water 115 % of control | [5] 108 % of control | dose: 25.0 mg/kg/injection, schedule: Q01DX009 (ip), vehicle: water 108 % of control | [6] 103 % of control and 108 % of control | [7] 104 % of control and 88 % of control

CCOC(=O)C1CC1C(c1cccnc1C)S(=O)(=O)c1ccccc1 (stereo not given)
inactive: [8] 100 % of control | [9] 99 % of control | [10] 97 % of control

C=C1C2(OS(=O)(=O)C(F)(F)F)CCC(C2)C1(C)C (stereo not given)
inactive: dose: 60.0 mg/kg/injection, schedule: Q01DX005 (ip), vehicle: saline 103 % of control | dose: 120.0 mg/kg/injection, schedule: Q01DX005 (ip), vehicle: saline 99 % of control | dose: 240.0 mg/kg/injection, schedule: Q01DX005 (ip), vehicle: saline 100 % of control

CN(C)/C(=N\N=C(/c1ccc(Cl)cc1)N(C)C)c1ccc(Cl)cc1
inactive: [3] 97 % of control | [4] 105 % of control | dose: 400.0 mg/kg/injection, schedule: Q04DX003 (ip), vehicle: saline with Tween-80 105 % of control

O=C(O)c1cccc2c1Cc1cc([N+](=O)[O-])ccc1-2
inactive: dose: 50.0 mg/kg/injection, schedule: Q01DX005 (ip), vehicle: Klucel (hydroxypropylcellulose) (HPC) 95 % of control | dose: 100.0 mg/kg/injection, schedule: Q01DX005 (ip), vehicle: Klucel (hydroxypropylcellulose) (HPC) 103 % of control

N/N=C(\N)c1nn(C2OC(CO)C(O)C2O)c2ncnc(N)c12 (stereo not given)
inactive: dose: 40.0 mg/kg/injection, schedule: Q01DX005 (ip), vehicle: saline with Tween-80 104 % of control | dose: 80.0 mg/kg/injection, schedule: Q01DX005 (ip), vehicle: saline with Tween-80 104 % of control | dose: 160.0 mg/kg/injection, schedule: Q01DX005 (ip), vehicle: saline with Tween-80 101 % of control | dose: 320.0 mg/kg/injection, schedule: Q01DX005 (ip), vehicle: saline with Tween-80 104 % of control

COC12[C@@H]3N[C@@H]3CN1C1=C(C(=O)C(NCCSSCCNC3=C(C)C(=O)C4=C(C3=O)C(COC(N)=O)[C@]3(OC)C5N[C@@H]5CN43)=C(C)C1=O)[C@@H]2COC(N)=O (stereo not given in full)
active: dose: 3.12 mg/kg/injection, schedule: Q01DX001 (ip), vehicle: DMSO 157 % of control | dose: 6.25 mg/kg/injection, schedule: Q01DX001 (ip), vehicle: DMSO 161 % of control | dose: 12.5 mg/kg/injection, schedule: Q01DX001 (ip), vehicle: DMSO 177 % of control | dose: 25.0 mg/kg/injection, schedule: Q01DX001 (ip), vehicle: DMSO 233 % of control

CNC(=O)CCCCC(=O)NC
inactive: [11] 96 % of control | [12] 104 % of control | [13] 114 % of control | dose: 400.0 mg/kg/injection, schedule: Q01DX009 (ip), vehicle: saline with Tween-80 96 % of control

O=C(O)c1c[nH]c2cc(OCCOc3ccc(F)cc3)ccc2c1=O
inactive: dose: 100.0 mg/kg/injection, schedule: Q04DX003 (ip), vehicle: saline 105 % of control | dose: 200.0 mg/kg/injection, schedule: Q04DX003 (ip), vehicle: saline 105 % of control | dose: 400.0 mg/kg/injection, schedule: Q04DX003 (ip), vehicle: saline 104 % of control

N#Cc1ccc(C#N)cc1
inactive: [11] 90 % of control | [14] 91 % of control | [12] 100 % of control | [3] 91 % of control | [13] 100 % of control | [4] 87 % of control

Cc1ccc(S(=O)(=O)Nc2ccccc2N(CCN(CCN(c2ccccc2NS(=O)(=O)c2ccc(C)cc2)S(=O)(=O)c2ccc(C)cc2)S(=O)(=O)c2ccc(C)cc2)S(=O)(=O)c2ccc(C)cc2)cc1
inactive: [11] 90 % of control | [12] 100 % of control | [13] 90 % of control

CC(C)(Oc1ccc(Cl)cc1)C(=O)OCCCC(=O)NC1CC(C)(C)N(O)C(C)(C)C1
inactive: dose: 200.0 mg/kg/injection, schedule: Q01DX001 (ip), vehicle: saline 105 % of control | dose: 400.0 mg/kg/injection, schedule: Q01DX001 (ip), vehicle: saline 115 % of control

O=C(O)/C=N/NS(=O)(=O)c1ccccc1
active: [6] 153 % of control | dose: 75.0 mg/kg/injection, schedule: Q01DX009 (ip), vehicle: water 163 % of control
inactive: [5] 113 % of control | [7] 99 % of control

CN(C)C1=CC=C2C(=O)c3ccccc3C2(c2ccccc2)C=C1 (stereo not given)
inactive: [8] 89 % of control | [9] 88 % of control | [10] 89 % of control

c1c(NC2=NCCO2)cc2c3c1CCCN3CCC2
inactive: dose: 12.5 mg/kg/injection, schedule: Q04DX003 (ip), vehicle: saline with Tween-80 90 % of control | dose: 25.0 mg/kg/injection, schedule: Q04DX003 (ip), vehicle: saline with Tween-80 100 % of control | [14] 109 % of control

CC(C)(C)n1nc(C2CC2)c(Br)c1NC(=O)c1ccccc1Cl
inactive: dose: 30.0 mg/kg/injection, schedule: Q01DX005 (ip), vehicle: Klucel (hydroxypropylcellulose) (HPC) 106 % of control | dose: 60.0 mg/kg/injection, schedule: Q01DX005 (ip), vehicle: Klucel (hydroxypropylcellulose) (HPC) 109 % of control | dose: 120.0 mg/kg/injection, schedule: Q01DX005 (ip), vehicle: Klucel (hydroxypropylcellulose) (HPC) 105 % of control | dose: 240.0 mg/kg/injection, schedule: Q01DX005 (ip), vehicle: Klucel (hydroxypropylcellulose) (HPC) 100 % of control

O=C1C=CC(=C2SCCS2)C(O)=C1
inactive: dose: 50.0 mg/kg/injection, schedule: Q01DX009 (ip), vehicle: Klucel (hydroxypropylcellulose) (HPC) 100 % of control | dose: 100.0 mg/kg/injection, schedule: Q01DX009 (ip), vehicle: Klucel (hydroxypropylcellulose) (HPC) 93 % of control | dose: 200.0 mg/kg/injection, schedule: Q01DX009 (ip), vehicle: Klucel (hydroxypropylcellulose) (HPC) 97 % of control

O=C(/C=C/C=C/c1ccccc1)c1ccco1
inactive: [11] 94 % of control | [12] 94 % of control | [13] 99 % of control

O=C1CCSC(=S)N1c1ccc(F)cc1
inactive: [15] 99 % of control | [16] 106 % of control | [17] 90 % of control

CCOc1cc(=O)cc2n(-c3cc(OCC)c(O)c(OCC)c3)c3ccccc3nc1-2
inactive: [15] 100 % of control | [16] 101 % of control | [17] 97 % of control

CC1(C)OC(=O)N(CO)C1=O
inactive: [1] 109 % of control | [2] 119 % of control | [18] 100 % of control

CC(C)(O)/C=C/C(=O)C(C)(O)C1C(O)CC2(C)C3CC=C4C(CC(=O)C(O)C4(C)C)C3(C)C(=O)CC12C (stereo not given)
inactive: dose: 0.5 mg/kg/injection, schedule: Q01DX009 (ip), vehicle: saline + alcohol 119 % of control | dose: 1.0 mg/kg/injection, schedule: Q01DX009 (ip), vehicle: saline + alcohol 119 % of control | dose: 2.0 mg/kg/injection, schedule: Q01DX009 (ip), vehicle: saline + alcohol 121 % of control and 120 % of control

Cc1nc2c(c(-c3ccc(Cl)cc3)n1)Cc1c(ccc3ccccc13)O2
inactive: [1] 107 % of control and 95 % of control | [2] 100 % of control | [18] 100 % of control and 94 % of control

c1ccc(P2(c3ccccc3)(c3ccccc3)C3C4C5C6C4C2C6C53)cc1 (stereo not given)
inactive: dose: 50.0 mg/kg/injection, schedule: Q01DX001 (ip), vehicle: saline with Tween-80 109 % of control | dose: 100.0 mg/kg/injection, schedule: Q01DX001 (ip), vehicle: saline with Tween-80 104 % of control | dose: 200.0 mg/kg/injection, schedule: Q01DX001 (ip), vehicle: saline with Tween-80 113 % of control

CCCCc1c(OCC)cc2n(CC)c3ccccc3n2c1=O
inactive: [19] 107 % of control | [20] 94 % of control | dose: 240.0 mg/kg/injection, schedule: Q01DX005 (ip), vehicle: saline with Tween-80 94 % of control

O=C(Nc1ccc(CCO)cc1)Nc1cc(C(F)(F)F)ccc1Cl
inactive: [19] 89 % of control | [20] 90 % of control
